Test results: article PMC7248880, “Preclinical Incorporation Dosimetry of [^18F]FACH—A Novel ^18F-Labeled MCT1/MCT4 Lactate Transporter Inhibitor for Imaging Cancer Metabolism with PET” (Molecules, 2020)

Experiment: Preclinical incorporation dosimetry: whole-body PET/CT in piglets, scaled to human, OLINDA 2.1, ICRP103
Type: in vivo, juvenile pigs
Method: Three piglets (age: ~6 weeks, weight: ~13–15 kg) were fasted on the day of imaging and received an intranuscular. injection of 1 mL azaperone and 4 mL ketamine to introduce anesthesia. […] During narcosis, the animals maintained spontaneous respiration and no mandatory ventilation was applied. The subjects were sequentially imaged after an iv injection (contralateral ear vein) of 156 ± 54 MBq [^18F]FACH (0.63 ± 0.49 µg) in a PET/CT system (Biograph16, SIEMENS, Erlangen, Germany). The piglets were positioned prone with legs alongside the body on a custom-made plastic trough including a piglet head-holder (Figure 5). The PET acquisition was divided into a sequential (4 × 9 min, 3 × 12 min) and a static part (1 × 24 min, 1 × 30 min, 1 × 36 min), each of which was preceded by a low-dose CT to acquire structural data for attenuation correction (AC) and anatomical orientation (Figure 6). Post mortem, the urine was collected by bladder punctuation, weighted, and divided into three 1 mL samples for activity measurements in a gamma-counter (Packard Cobra II 5003 Auto Gamma Counting System, GMI, Ramsey, MN, USA).
PET data reconstruction was done using low-dose CT attenuation correction (AC) and an iterative OSEM algorithm with 4 iterations and 8 subsets. As the PET/CT system is in daily clinical use, it is periodically subjected to detector normalization and activity calibration. Furthermore, all peripheral activity-measuring devices to be used for the investigation (dose calibrator, gamma counter) are cross-calibrated in terms of timing and a radioactivity adjustment.
The image data were analyzed with ROVER (ABX, Radeberg, Germany; v. 3.0.46h). The organs were identified and manually delineated using 3D volumes of interest (VOI). The CT data were used for anatomical orientation and for image registration with the PET data. Relevant source organs like brain, gall bladder, large intestine, small intestine, stomach, heart, kidneys, liver, lungs, pancreas, red marrow (backbone, pelvis, sternum), spleen, thyroid, testes, skeleton (bone), and the urinary bladder were delineated and the time–activity data transformed into percentage of injected dose (%IDorgan) with Equation (2). (2) %IDorgant=Aorgant×cscant/A0t [%] where Aorgant is the activity in the organ at the time t; cscant is a calibration factor representing the theoretical body activity (derived from a whole body mask of a volume that equals the body dimentions of the animal) decay corrected to t and divided by the imaged body activity in each image frame at the time t, and A0t is the injected activity decay corrected to t0.
The dose calculation has been described by our group in detail before. Briefly, due to differences in weight, size, and metabolic rates between the animal species and the human volunteers, it is necessary to map the preclinical extracted biodistribution data to human circumstances. Thus, the animal biokinetic data (time scale and %ID values) were adapted to the human circumstances according to [22] to fit the human weight, size, and metabolic rates (Equations (3) and (4)). (3) thuman=tanimal[mhuman/manimal]^0.25 (4) [%ID]/organhuman=[%ID]/ganimal×mTBanimal[g]/mTBhuman[g]×morganhuman[g]
The TIACs were estimated by exponential fitting and the dosimetry estimation was performed using OLINDA/EXM software (v. 2.1). Finally, organ doses (OD) were estimated and multiplied by tissue weighting factors as published in ICRP103 [20].

In the case of `CCCN(CCC[18F])c1ccc(/C=C(\C#N)C(=O)O)c(OC)c1` [[^18F]FACH, (E)-2-cyano-3-{4-[(3-[^18F]fluoropropyl)(propyl)amino]-2-methoxyphenyl}acrylic acid], the Effective dose (FACHpig1) was 1.25E-02 mSv/MBq, the “Effective dose contribution HT wT, Adrenals” value (FACHpig1) was 1.26E-04 mSv/MBq and the “Effective dose contribution HT wT, Brain” value (FACHpig1) was 5.61E-05 mSv/MBq. For the same compound, the “Effective dose contribution HT wT, Esophagus” value (FACHpig1) was 4.16E-04 mSv/MBq, the “Effective dose contribution HT wT, Eyes” value (FACHpig1) was 0.00E+00 mSv/MBq and the “Effective dose contribution HT wT, Gallbladder Wall” value (FACHpig1) was 1.12E-04 mSv/MBq. For the same compound, the “Effective dose contribution HT wT, Heart Wall” value (FACHpig1) was 9.47E-05 mSv/MBq, the “Effective dose contribution HT wT, Kidneys” value (FACHpig1) was 2.47E-04 mSv/MBq and the “Effective dose contribution HT wT, Left colon” value (FACHpig1) was 7.77E-04 mSv/MBq. For the same compound, the “Effective dose contribution HT wT, Liver” value (FACHpig1) was 3.22E-04 mSv/MBq, the “Effective dose contribution HT wT, Lungs” value (FACHpig1) was 9.67E-04 mSv/MBq and the “Effective dose contribution HT wT, Osteogenic Cells” value (FACHpig1) was 2.00E-04 mSv/MBq. The “Effective dose contribution HT wT, Pancreas” value (FACHpig1) was 5.61E-04 mSv/MBq, the “Effective dose contribution HT wT, Prostate” value (FACHpig1) was 7.36E-05 mSv/MBq and the “Effective dose contribution HT wT, Rectum” value (FACHpig1) was 3.44E-04 mSv/MBq. The “Effective dose contribution HT wT, Red Marrow” value (FACHpig1) was 1.58E-03 mSv/MBq, the “Effective dose contribution HT wT, Right colon” value (FACHpig1) was 9.34E-04 mSv/MBq and the “Effective dose contribution HT wT, Salivary Glands” value (FACHpig1) was 1.03E-04 mSv/MBq. For the same compound, the “Effective dose contribution HT wT, Small Intestine” value (FACHpig1) was 1.74E-04 mSv/MBq, the “Effective dose contribution HT wT, Spleen” value (FACHpig1) was 9.48E-05 mSv/MBq and the “Effective dose contribution HT wT, Stomach Wall” value (FACHpig1) was 1.71E-03 mSv/MBq. The “Effective dose contribution HT wT, Testes” value (FACHpig1) was 4.40E-04 mSv/MBq, the “Effective dose contribution HT wT, Thymus” value (FACHpig1) was 9.49E-05 mSv/MBq and the “Effective dose contribution HT wT, Thyroid” value (FACHpig1) was 3.21E-04 mSv/MBq. The “Effective dose contribution HT wT, Total Body” value (FACHpig1) was 0.00E+00 mSv/MBq, the “Effective dose contribution HT wT, Urinary Bladder Wall” value (FACHpig1) was 2.74E-03 mSv/MBq and the “Organ equivalent dose HT, Adrenals” value (FACHpig1) was 1.36E-02 mSv/MBq. The “Organ equivalent dose HT, Brain” value (FACHpig1) was 5.61E-03 mSv/MBq, the “Organ equivalent dose HT, Esophagus” value (FACHpig1) was 1.04E-02 mSv/MBq and the “Organ equivalent dose HT, Eyes” value (FACHpig1) was 8.81E-03 mSv/MBq. For the same compound, the “Organ equivalent dose HT, Gallbladder Wall” value (FACHpig1) was 1.22E-02 mSv/MBq, the “Organ equivalent dose HT, Heart Wall” value (FACHpig1) was 1.03E-02 mSv/MBq and the “Organ equivalent dose HT, Kidneys” value (FACHpig1) was 2.67E-02 mSv/MBq. The “Organ equivalent dose HT, Left colon” value (FACHpig1) was 1.60E-02 mSv/MBq, the “Organ equivalent dose HT, Liver” value (FACHpig1) was 8.05E-03 mSv/MBq and the “Organ equivalent dose HT, Lungs” value (FACHpig1) was 8.05E-03 mSv/MBq. The “Organ equivalent dose HT, Osteogenic Cells” value (FACHpig1) was 2.00E-02 mSv/MBq, the “Organ equivalent dose HT, Pancreas” value (FACHpig1) was 6.08E-02 mSv/MBq and the “Organ equivalent dose HT, Prostate” value (FACHpig1) was 1.59E-02 mSv/MBq. For the same compound, the “Organ equivalent dose HT, Rectum” value (FACHpig1) was 1.50E-02 mSv/MBq, the “Organ equivalent dose HT, Red Marrow” value (FACHpig1) was 1.32E-02 mSv/MBq and the “Organ equivalent dose HT, Right colon” value (FACHpig1) was 1.93E-02 mSv/MBq. For the same compound, the “Organ equivalent dose HT, Salivary Glands” value (FACHpig1) was 1.03E-02 mSv/MBq, the “Organ equivalent dose HT, Small Intestine” value (FACHpig1) was 1.88E-02 mSv/MBq and the “Organ equivalent dose HT, Spleen” value (FACHpig1) was 1.03E-02 mSv/MBq. The “Organ equivalent dose HT, Stomach Wall” value (FACHpig1) was 1.43E-02 mSv/MBq, the “Organ equivalent dose HT, Testes” value (FACHpig1) was 1.10E-02 mSv/MBq and the “Organ equivalent dose HT, Thymus” value (FACHpig1) was 1.03E-02 mSv/MBq. The “Organ equivalent dose HT, Thyroid” value (FACHpig1) was 8.02E-03 mSv/MBq, the “Organ equivalent dose HT, Total Body” value (FACHpig1) was 1.15E-02 mSv/MBq and the “Organ equivalent dose HT, Urinary Bladder Wall” value (FACHpig1) was 6.86E-02 mSv/MBq. The Effective dose (FACHpig2) was 1.19E-02 mSv/MBq, the “Effective dose contribution HT wT, Adrenals” value (FACHpig2) was 1.33E-04 mSv/MBq and the “Effective dose contribution HT wT, Brain” value (FACHpig2) was 4.35E-05 mSv/MBq. The “Effective dose contribution HT wT, Esophagus” value (FACHpig2) was 3.43E-04 mSv/MBq, the “Effective dose contribution HT wT, Eyes” value (FACHpig2) was 0.00E+00 mSv/MBq and the “Effective dose contribution HT wT, Gallbladder Wall” value (FACHpig2) was 4.78E-04 mSv/MBq. The “Effective dose contribution HT wT, Heart Wall” value (FACHpig2) was 8.50E-05 mSv/MBq, the “Effective dose contribution HT wT, Kidneys” value (FACHpig2) was 2.20E-04 mSv/MBq and the “Effective dose contribution HT wT, Left colon” value (FACHpig2) was 7.07E-04 mSv/MBq. The “Effective dose contribution HT wT, Liver” value (FACHpig2) was 1.11E-03 mSv/MBq, the “Effective dose contribution HT wT, Lungs” value (FACHpig2) was 9.55E-04 mSv/MBq and the “Effective dose contribution HT wT, Osteogenic Cells” value (FACHpig2) was 2.34E-04 mSv/MBq. The “Effective dose contribution HT wT, Pancreas” value (FACHpig2) was 2.11E-04 mSv/MBq, the “Effective dose contribution HT wT, Prostate” value (FACHpig2) was 4.73E-05 mSv/MBq and the “Effective dose contribution HT wT, Rectum” value (FACHpig2) was 3.17E-04 mSv/MBq. For the same compound, the “Effective dose contribution HT wT, Red Marrow” value (FACHpig2) was 1.97E-03 mSv/MBq, the “Effective dose contribution HT wT, Right colon” value (FACHpig2) was 1.58E-03 mSv/MBq and the “Effective dose contribution HT wT, Salivary Glands” value (FACHpig2) was 7.07E-05 mSv/MBq. The “Effective dose contribution HT wT, Small Intestine” value (FACHpig2) was 2.47E-04 mSv/MBq, the “Effective dose contribution HT wT, Spleen” value (FACHpig2) was 8.20E-05 mSv/MBq and the “Effective dose contribution HT wT, Stomach Wall” value (FACHpig2) was 1.22E-03 mSv/MBq. For the same compound, the “Effective dose contribution HT wT, Testes” value (FACHpig2) was 2.83E-04 mSv/MBq, the “Effective dose contribution HT wT, Thymus” value (FACHpig2) was 7.07E-05 mSv/MBq and the “Effective dose contribution HT wT, Thyroid” value (FACHpig2) was 2.52E-04 mSv/MBq. For the same compound, the “Effective dose contribution HT wT, Total Body” value (FACHpig2) was 0.00E+00 mSv/MBq, the “Effective dose contribution HT wT, Urinary Bladder Wall” value (FACHpig2) was 1.25E-03 mSv/MBq and the “Organ equivalent dose HT, Adrenals” value (FACHpig2) was 1.44E-02 mSv/MBq. For the same compound, the “Organ equivalent dose HT, Brain” value (FACHpig2) was 4.35E-03 mSv/MBq, the “Organ equivalent dose HT, Esophagus” value (FACHpig2) was 8.58E-03 mSv/MBq and the “Organ equivalent dose HT, Eyes” value (FACHpig2) was 6.29E-03 mSv/MBq. The “Organ equivalent dose HT, Gallbladder Wall” value (FACHpig2) was 5.18E-02 mSv/MBq, the “Organ equivalent dose HT, Heart Wall” value (FACHpig2) was 9.21E-03 mSv/MBq and the “Organ equivalent dose HT, Kidneys” value (FACHpig2) was 2.38E-02 mSv/MBq. The “Organ equivalent dose HT, Left colon” value (FACHpig2) was 1.46E-02 mSv/MBq, the “Organ equivalent dose HT, Liver” value (FACHpig2) was 2.77E-02 mSv/MBq and the “Organ equivalent dose HT, Lungs” value (FACHpig2) was 7.96E-03 mSv/MBq. For the same compound, the “Organ equivalent dose HT, Osteogenic Cells” value (FACHpig2) was 2.34E-02 mSv/MBq, the “Organ equivalent dose HT, Pancreas” value (FACHpig2) was 2.28E-02 mSv/MBq and the “Organ equivalent dose HT, Prostate” value (FACHpig2) was 1.02E-02 mSv/MBq. For the same compound, the “Organ equivalent dose HT, Rectum” value (FACHpig2) was 1.38E-02 mSv/MBq, the “Organ equivalent dose HT, Red Marrow” value (FACHpig2) was 1.64E-02 mSv/MBq and the “Organ equivalent dose HT, Right colon” value (FACHpig2) was 3.25E-02 mSv/MBq. The “Organ equivalent dose HT, Salivary Glands” value (FACHpig2) was 7.07E-03 mSv/MBq, the “Organ equivalent dose HT, Small Intestine” value (FACHpig2) was 2.67E-02 mSv/MBq and the “Organ equivalent dose HT, Spleen” value (FACHpig2) was 8.88E-03 mSv/MBq. For the same compound, the “Organ equivalent dose HT, Stomach Wall” value (FACHpig2) was 1.01E-02 mSv/MBq, the “Organ equivalent dose HT, Testes” value (FACHpig2) was 7.08E-03 mSv/MBq and the “Organ equivalent dose HT, Thymus” value (FACHpig2) was 7.66E-03 mSv/MBq. The “Organ equivalent dose HT, Thyroid” value (FACHpig2) was 6.30E-03 mSv/MBq, the “Organ equivalent dose HT, Total Body” value (FACHpig2) was 9.14E-03 mSv/MBq and the “Organ equivalent dose HT, Urinary Bladder Wall” value (FACHpig2) was 3.12E-02 mSv/MBq. For the same compound, the Effective dose (FACHpig3) was 1.29E-02 mSv/MBq, the “Effective dose contribution HT wT, Adrenals” value (FACHpig3) was 1.35E-04 mSv/MBq and the “Effective dose contribution HT wT, Brain” value (FACHpig3) was 4.10E-05 mSv/MBq. For the same compound, the “Effective dose contribution HT wT, Esophagus” value (FACHpig3) was 3.24E-04 mSv/MBq, the “Effective dose contribution HT wT, Eyes” value (FACHpig3) was 0.00E+00 mSv/MBq and the “Effective dose contribution HT wT, Gallbladder Wall” value (FACHpig3) was 8.05E-04 mSv/MBq.
